# Experimental data from US8129532B2, “Amino(oligo)thiophene dyes, preparation thereof, and optical methods of use” (The University of Connecticut, priority 2007, dated 2012).
# Assays:
# [1] = One-photon fluorescence relative signal change per 100 mV; settings: excitation / long-pass emission (nm) given
# From the text: The left-most data columns of Table 1 are the absorption and emission maxima for one photon fluorescence in soybean multi-lamellar lipid vesicles used to mimic the membrane environment. The column indicating relative signal change for one-photon fluorescence also lists the excitation light source used and the lower bounds of the long-pass emission detected.
# [2] = tested on: NIE-115 mouse neuroblastoma; assay: Time-dependence (kinetics) of SHG and 2PF signal change after voltage-clamp step; assay type: cell-based
# From the text: For full details of our non-linear imaging microscope, we refer the reader to previously published descriptions. A. C. Millard, P. J. Campagnola, W. Mohler, A. Lewis, and L. M. Loew, “Second Harmonic Imaging Microscopy,” Meth. Enzymol. 361, 47-69 (2003); Millard, A. C., L. Jin, and L. M. Loew, “Second Harmonic Generation Imaging Microscopy with a High Power Ultrafast Fiber Laser,”Commercial and Biomedical Applications of Ultrafast Lasers. 5714-5716, 92-98 (2005); A. C. Millard, L. Jin, M.-D. Wei, J. P. Wuskell, A. Lewis, and L. M. Loew, “Sensitivity of Second Harmonic Generation from Styryl Dyes to Transmembrane Potential,” Biophys. J. 86, 1169-1176 (2004). Our current microscope combines a Fluoview (Olympus) scan-head and an Axiovert (Zeiss) inverted microscope constructed for multiple imaging methodologies including wide-field, one-photon excitation fluorescence imaging, as well as SHG and 2PF imaging. Our laser sources include a Mira (Coherent) Ti:sapphire laser and a Femtopower (Fianium) fiber laser operating at 1064 nm. Millard, A. C., L. Jin, and L. M. Loew, “Second Harmonic Generation Imaging Microscopy with a High Power Ultrafast Fiber Laser,”Commercial and Biomedical Applications of Ultrafast Lasers. 5714-5716, 92-98 (2005). For excitation, we routinely use an IR-Achroplan (Zeiss) 40×, 0.8 NA water-immersion objective though for shorter wavelengths we also use an A-Plan (Zeiss) 40×, 0.65 NA air objective. Fluorescence is imaged (for linear imaging) or collected (for non-linear imaging) back through the excitation objective, while SHG is collected in the forward, transmitted light direction by a condenser, either 0.8 NA or 0.55 NA (Zeiss). For optimal collection, the numerical aperture of the condenser should be at least 1/√2 of the numerical aperture of the excitation objective (L. Moreaux, O. Sandre, S. Charpak, M. Blanchard-Desce, and J. Mertz, “Coherent Scattering in Multi-Harmonic Light Microscopy,” Biophys. J. 80, 1568-1574 (2001); L. Moreaux, O. Sandre, and J. Mertz. “Membrane Imaging by Second Harmonic Generation Microscopy,” J. Opt. Soc. Am. B. 17, 1685-1694 (2000)), though in practice a condenser of slightly lower numerical aperture will often suffice. Since the wavelength of second harmonic light is precisely half that of the excitation light, the choice of filter for SHG imaging is greatly simplified and the primary concern is the blocking of the excitation light that is also transmitted through the sample as well as fluorescence that is emitted forwards.
# NIE-115 mouse neuroblastoma were cultured in DMEM with 10% fetal bovine serum and 1% antibiotic-antimycotic (Invitrogen, Carlsbad, Calif.) in a 60 mm plastic dish (353002, Becton Dickinson, Franklin Lakes, N.J.). The culture was maintained at 37° C. with 5% CO2 for a period of 48 hours prior to experimentation.
# For experimentation the growth medium was replaced with 3 mL of Earle's Balanced Salt Solution (EBSS, Sigma, St. Louis, Mo.) with 20 mM HEPES (Merck Biosciences AG, Laufelfingen, Switzerland). The internal buffer, injected into the patch pipette, was a potassium aspartate (140 mM, Sigma, St. Louis, Mo.), sodium chloride (5 mM, Sigma, St. Louis, Mo.) and HEPES (10 mM) solution at a pH of 7.35. The pH was adjusted with potassium hydroxide and hydrochloric acid.
# For characterizing the voltage-sensitivity of SHG and 2PF, we used a slow (˜0.1 Hz) switching protocol as previously described (A. C. Millard, P. J. Campagnola, W. Mohler, A. Lewis, and L. M. Loew, “Second Harmonic Imaging Microscopy,” Meth. Enzymol. 361, 47-69 (2003); Millard, A. C., L. Jin, and L. M. Loew, “Second Harmonic Generation Imaging Microscopy with a High Power Ultrafast Fiber Laser,” Commercial and Biomedical Applications of Ultrafast Lasers. 5714-5716, 92-98 (2005); A. C. Millard, L. Jin, M.-D. Wei, J. P. Wuskell, A. Lewis, and L. M. Loew, “Sensitivity of Second Harmonic Generation from Styryl Dyes to Transmembrane Potential,” Biophys. J. 86, 1169-1176 (2004)) with a 50 mV step. […]
# [3] = One-photon absorption and emission spectra in multilamellar lipid vesicles, water and ethanol; assay type: physicochemical; settings: for 1PF Abs. Max / 1PF Em. Max: one photon, soybean multi-lamellar lipid vesicles
# From the text: […] The column indicating relative signal change for one-photon fluorescence also lists the excitation light source used and the lower bounds of the long-pass emission detected.
# Absorption and emission spectra were obtained for a series of dyes with different acceptors: pyridinium (PY-1261), quinolinium (PY-212), and acridinium (PY-2240).
# [4] = tested on: layer V pyramidal neurons; assay: Voltage-sensitive dye imaging of action potentials in intracellularly stained pyramidal neurons in brain slices; assay type: cell-based, Sprague Dawley rats; settings: for dF/F at 658 nm: backpropagating AP, basal dendrites 80-150 μm from soma, %; for dF/F at 658 nm / S/N ratio at 658 nm: laser spot 658 nm
# From the text: Sprague Dawley rats (P21-42) were anesthetized with isoflurane, decapitated, and the brains were removed with the head immersed in ice-cold, artificial cerebrospinal fluid (ACSF), according to an animal protocol approved by the Center for Laboratory Animal Care, University of Connecticut. Brain slices (300 μm) were cut from frontal lobes in the coronal plane. ACSF contained (in mM) 125 NaCl, 26 NaHCO3, 10 glucose, 2.3 KCl, 1.26 KH2PO4, 2 CaCl2 and 1 MgSO4, pH 7.4. Whole-cell recordings were made from visually identified layer V pyramidal neurons on the medial part of the slice. Intracellular solution contained (in mM) 135 K-gluconate, 2 MgCl2, 3 Na2-ATP, 10 Na2-phosphocreatine, 0.3 Na2-GTP and 10 Hepes (pH 7.3, adjusted with KOH). Electrical signals were amplified with Multiclamp 700A and digitized with two input boards: (1) Digidata Series 1322A (Axon Instruments) at 5 kHz, and (2) Neuroplex (RedShirtImaging) at 2.7 kHz sampling rate. Only cells with a membrane potential more hyperpolarized than −50 mV, and action potential amplitudes exceeding 80 mV (measured from the base line) were included in this study. All experiments were performed on layer 5 cortical pyramidal cells at 34° C.
# Blue dyes were stored in ethanol stock solution at −20° C. On the day of the recording blue dyes were dissolved in standard K-gluconate based intracellular solution. A loading pipette was filled with two varieties of the same intracellular solution; one with and one without dye. Dye-free solution was occupying the very tip of the pipette, while the back of the pipette lumen was microloaded with dye-rich solution. The purpose of dye-free solution in the tip of the patch pipette was to prevent dye-leak during the maneuver through brain slice tissue. VSD styryl dyes are lipophilic and bind indiscriminately and irreversibly to all membranes around the neuron of interest. Even a small amount of dye that leaks out of the pipette during the formation of the gigaohm seal, can generate strong fluorescent background. Fluorescent light emanating from surrounding tissue has a devastating effect on dendritic optical signals. Elimination of the background fluorescence is critical for dendritic voltage imaging. How much dye-free solution one should put in the tip depends on time period between the submersion of the patch pipette into the recording chamber and formation of the gigaohm seal. The faster one can perform this maneuver the less dye-free solution she needs to achieve optimal staining.
# Blue VSD were injected at room temperature for 25-60 minutes. The filling pipette was carefully pulled out (outside-out patch) and brain slices were left to incubate for 20-120 minutes at room temperature. Just before optical recordings the cells were re-patched with dye-free pipette at the physiological temperature (34° C.).
# Voltage-sensitive dye imaging was performed on a Zeiss Axioskope 2FS microscope equipped with NeuroCCD camera (RedShirtImaging). We used Zeiss 40× objective IR-Achroplan 0.80 W. The size of the square visual field captured by NeuroCCD camera was 384×384 um. In the place of the arc lamp (normally used for epi-illumination), we inserted a 200 μm fiber optic guide with a collimator. Laser beam was focused on the other side of the fiber optic guide using a microscope objective-like lens. This arrangement produced a motionless spot of laser light (˜25 μm in diameter) at the object plane. An illuminated section of the brain slice, projected onto the NeuroCCD camera, covered approximately 25 pixels when used with 40× objective lens. At this magnification, one pixel sampled a 4.8×4.8 square in the object plane. A region of interest (ROI) was brought into the laser spot using X-Y microscope platform. The laser beam was interrupted by an electro-programmable shutter (Uniblitz®). Attention was made to limit the exposure time during the recording and positioning of the neuron.
1PF Abs. Max [3] [nm],1PF Em. Max [3] [nm],SMILES,1PF Change (ΔF/F-100 mv) [1],"SHG kinetics, in words [2]",SHG Kinetics (exponential time constant) ([2]; time resolution 5 ms) [ms],"2PF signal sensitivity detected between 750-850 nm ([2]; kinetics data, FIG. 3c) [%/50 mV]",2PF kinetics (time of signal change) ([2]; time resolution 5 ms) [ms],dF/F at 658 nm [4] [%],S/N ratio at 658 nm [4],Absorbance ethanol [3] [nm],Absorbance MLV ([3]; multilamellar lipid vesicles) [nm],Absorbance water [3] [nm],Emission ethanol [3] [nm],polarity of optical signal at 532 nm excitation [4],polarity of optical signal at 658 nm excitation [4],"average amplitude of AP-associated optical signal, 658 nm excitation ([4]; n=4 cells, N=24 measurements) [% ΔF/F]","average size of AP-associated optical signal, 532 nm excitation ([4]; same 4 cells) [% ΔF/F]",average amplitude ratio of AP-associated signal at two wavelengths (658/532 nm) ([4]; same cell and region of interest),Emission MLV ([3]; multilamellar lipid vesicles) [nm]
555,688,CCC[N+](CCC)(CCC)CCC[n+]1ccc(/C=C/c2ccc(-c3ccc(N(CC)CC)s3)s2)cc1 [PY-1278],7.9E−002; 640/>715 ΔF/F-100 mv,instantaneous,,,,,,,,,,,,,,,
504,655,"CCCCN(CCCC)c1ccc2cc(/C=C/C=C/C=C/c3cc[n+](CCC[N+](C)(C)C)c4ccccc34)ccc2c1.[Br-].[Br-] [di-4-ANHTQPQ, reference compound]",5.4E−002; 630/>715 ΔF/F-100 mv,,34 ± 3,,,,,,,,,,,,,,
539,708,"CCCCN(CCCC)c1ccc2cc(/C=C/C=C/c3cc[n+](CCC[N+](C)(C)C)c4ccccc34)ccc2c1.[Br-].[Br-] [di-4-ANBDQPQ, Di-4-ANBDQPQ, reference compound]",2.0E−001; 618/>715 ΔF/F-100 mv,,<5,,,1.23 ± 0.66,4.97,603,539,552,818,,,,,,
528,670,"CCCCN(CCCC)c1ccc2cc(/C=C/c3cc[n+](CCC[N+](C)(C)C)c4ccccc34)ccc2c1.[Br-].[Br-] [di-4-ANEQPQ, reference compound]",1.2E−001; 610/>665 ΔF/F-100 mv,,76 ± 13,,,,,,,,,,,,,,
,,CN(C)c1ccc(/C=C/c2ccc(/C=C/c3cc[n+](CCC[N+](C)(C)C)c4ccccc34)o2)cc1 [JPW-3080],,,,,,5.13 ± 1.20,6.20 ± 2.29,630,569,554,896,negative optical signals,positive,4.13±0.96,0.97±0.26,4.39±1.07,730
551,691,CC[N+](CC)(CC)CCC[n+]1ccc(/C=C/c2ccc(-c3ccc(N4CCCC4)s3)s2)cc1 [PY-1274],5.0E−002; 620/>715 ΔF/F-100 mv,,,,,,,,,,,,,,,,

SMILES,1PF Abs. Max [3] [nm],1PF Em. Max [3] [nm],1PF Change (ΔF/F-100 mv) [1],"SHG kinetics, in words [2]",SHG Kinetics (exponential time constant) ([2]; time resolution 5 ms) [ms],"2PF signal sensitivity detected between 750-850 nm ([2]; kinetics data, FIG. 3c) [%/50 mV]",2PF kinetics (time of signal change) ([2]; time resolution 5 ms) [ms],dF/F at 658 nm [4] [%],S/N ratio at 658 nm [4],Absorbance ethanol [3] [nm],Absorbance MLV ([3]; multilamellar lipid vesicles) [nm],Absorbance water [3] [nm],Emission ethanol [3] [nm],polarity of optical signal at 532 nm excitation [4],polarity of optical signal at 658 nm excitation [4],"average amplitude of AP-associated optical signal, 658 nm excitation ([4]; n=4 cells, N=24 measurements) [% ΔF/F]","average size of AP-associated optical signal, 532 nm excitation ([4]; same 4 cells) [% ΔF/F]",average amplitude ratio of AP-associated signal at two wavelengths (658/532 nm) ([4]; same cell and region of interest),Emission MLV ([3]; multilamellar lipid vesicles) [nm]
CCN(CC)c1ccc(-c2ccc(-c3ccc(/C=C/c4cc[n+](CCC[N+](CC)(CC)CC)cc4)s3)s2)s1 [PY-1268],535,714,4.2E−002; 640/>715 ΔF/F-100 mv,instantaneously,<5,4.28,≤ 5,5.89 ± 3.41,4.44 ± 0.75,588,535,508,,,,,,,
